# Source: US10302644B2, “Compositions and methods for treating multiple myeloma” (Dana-Farber Cancer Institute, Inc., priority 2014, dated 2019)
# “Also recorded” adds a separate entry of the source.
# Experiments:
# [1] = system: IL-2 production; test: Co-stimulation of IL-2 production; type: cell-based
# [2] = system: B cell; test: B cell growth inhibition; type: cell-based
# [3] = system: LC3-II, Bim, PARP, MDM2, XIAP, cIAP, p-p70S6K; test: Immunoblotting/qPCR of autophagy and apoptosis proteins in MM cells; type: cell-based
# Description: (§1) MM cells were harvested and lysed using RIPA-lysis buffer (Boston Bioproducts, Ashland, Mass.) containing 5 mM EDTA, 5 mM NaF, 2 mM Na3VO4, 1 mM PMSF, 5 μg/ml leupeptin, and 5 μg/ml aprotinin. Nuclear proteins were extracted using “Nuclear Extraction Kit” (Affimetrix). After the determination of protein concentration using DC protein assay (Bio-Rad, Hercules, Calif.), β-mercaptoethanol (-ME) was added to the whole-cell lysates to a 2% final concentration. The whole cell lysates or nuclear extracts were subjected to SDS-PAGE, transferred to nitrocellulose membranes (Bio-Rad, Hercules, Calif.) or polyvinylidene fluoride membranes (Millipore, Billerica, Mass.), and immunoblotted with indicated Abs. Silver staining was carried out using “SilverQuest Staining Kit®” (Invitrogen), according to manufacturer's protocol.
# (§2) RNA was extracted using Trizol (Invitrogen) and quantified by a Nanodrop spectrophotometer (Labtech). Specifically, 5×10^6 cells were pelleted, washed with cold PBS, and resuspended in 1 mL Trizol. They were then incubated with 1-Bromo-3-chloropropane (Sigma), washed first with Isopropyl alcohol and then with 75% Ethanol, and resuspended in Nuclease Free-water (Invitrogen). After quantification, 2000 ng of RNA was used to synthesize cDNA via the Superscript II First strand synthesis Kit (Invitrogen), according to the manufacturer's instructions. To evaluate the expression levels of TP53RK, BCL2L11, MYC, Bim, E2F1, TP53, IKZF1, IKZF3, RRM1, p18CDKN2C, PSMB5, PSMB7, PSMA3 and GAPDH, quantitative real time PCR (QRT-PCR) was performed using SYBR GREEN PCR Master Mix (Applied Biosystem), after optimization of the primer conditions. cDNAs were diluted 1:100 or 1:1000 and amplified in a 20 μL reaction. Primers were used at 200 nM or 400 nM concentration. Thermal cycling conditions were: 10 minutes at 95° C., 40 cycles at 95° C. for 15 seconds, followed by 1 minute at 60° C. Real-time quantitative PCR was performed on ABI Prism 7300 Sequence Detection System (Applied Biosystems). Data were analyzed using the delta delta Ct method. GAPDH was used as an invariant control.
# [4] = system: p53; test: Immunoblotting of p53 and phosphorylated p53 in MM cells; type: cell-based
# Description: as §1
# [5] = system: RRM1, p18CDKN2C; test: RRM1 and p18CDKN2C expression (RT-qPCR, Western blot); type: cell-based; settings: H929 cells
# Description: as §1, §2
# [6] = system: MM cells; test: Growth inhibition assay (MTT) / viable cell count (Trypan-blue); type: cell-based
# Description: Cell growth was assessed by measuring 3-(4,5-dimethylthiazol-2-yl)-2,5-diphenyl […] bromide (MTT, Chemicon International, Temecula, Calif.) dye absorbance. Cells were pulsed with 10 μl of 5 mg/ml MTT to each well for the last 4 h of 48 h and/or 72 h cultures, followed by 100 μl isopropanol containing 0.04N HCl. Absorbance was measured at 570/630 nm using a spectrophotometer (Molecular Devices Corp., Sunnyvale Calif.).
# [7] = system: c-Myc, IKZF1/3; test: c-Myc and IKZF1/3 expression (immunoblotting, qPCR); type: cell-based
# Description: (§3) MM cells were harvested and lysed using RIPA-lysis buffer (Boston Bioproducts, Ashland, Mass.) containing 5 mM EDTA, 5 mM NaF, 2 mM Na3VO4, 1 mM PMSF, 5 μg/ml leupeptin, and 5 μg/ml aprotinin. Nuclear proteins were extracted using “Nuclear Extraction Kit” (Affimetrix). After the determination of protein concentration using DC protein assay (Bio-Rad, Hercules, Calif.), β-mercaptoethanol (-ME) was added to the whole-cell lysates to a 2% final concentration. […]
# (§4) RNA was extracted using Trizol (Invitrogen) and quantified by a Nanodrop spectrophotometer (Labtech). […] After quantification, 2000 ng of RNA was used to synthesize cDNA via the Superscript II First strand synthesis Kit (Invitrogen), according to the manufacturer's instructions. To evaluate the expression levels of TP53RK, BCL2L11, MYC, Bim, E2F1, TP53, IKZF1, IKZF3, RRM1, p18CDKN2C, PSMB5, PSMB7, PSMA3 and GAPDH, quantitative real time PCR (QRT-PCR) was performed using SYBR GREEN PCR Master Mix (Applied Biosystem), after optimization of the primer conditions. cDNAs were diluted 1:100 or 1:1000 and amplified in a 20 μL reaction. […] Real-time quantitative PCR was performed on ABI Prism 7300 Sequence Detection System (Applied Biosystems). Data were analyzed using the delta delta Ct method. […]
# [8] = target: T1, TP53RK (Homo sapiens, UniProt Q96S44); test: In vitro TP53RK auto-phosphorylation assay; type: biochemical; settings: dose-dependent; recombinant TP53RK and TPRKB
# T1 construct: made in house; host or cells: HEK-293FT (transient calcium phosphate transfection; anti-DDK beads, Superdex 200)
# T1 sequence (Q96S44 whole entry, other chains not shown): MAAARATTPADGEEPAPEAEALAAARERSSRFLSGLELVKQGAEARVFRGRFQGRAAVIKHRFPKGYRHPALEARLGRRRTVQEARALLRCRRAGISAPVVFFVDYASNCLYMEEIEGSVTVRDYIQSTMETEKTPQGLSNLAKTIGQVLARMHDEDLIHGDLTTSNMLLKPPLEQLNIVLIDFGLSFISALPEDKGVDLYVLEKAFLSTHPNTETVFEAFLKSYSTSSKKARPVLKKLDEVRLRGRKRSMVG
# Description: Full-length TP53RK and TPRKB sequences obtained from OriGene (Rockville, Md.) were cloned and inserted into pCMV6-AC-Myc-DDK. These constructs were transiently transfected into HEK-293FT cells to overexpress recombinant C-terminal Myc-DDK tagged TP53RK and TPRKB by calcium phosphate transfection. The recombinant proteins were immunoprecipitated with anti-DDK agarose beads and subjected to gel chromatography using Superdex 200 sizing column with an HPLC system. TP53RK and TPRKB proteins were co-eluted in the same fraction, whereas the TPRKB single protein was eluted in later fractions.
# In vitro TP53RK auto-phosphorylation assay was performed as previously described^2. Briefly, purified recombinant TP53RK and TPRKB proteins (1.5-3 μg/reaction) were incubated with 25 uM [γ-32P]ATP (3000 Ci/mmol, 10 mCi/mL, PerkinElmer, Boston, Mass.) in HEPES buffer (25 mM HEPES (pH 7.5), 100 mM NaCl, 25 mM MgCl2. 2 mM DTT, phosphatase inhibitor mix (Roche) for 30 min at 30° C. The reaction was terminated by adding SDS sample buffer, and reaction mixtures were subjected to SDS-PAGE and autoradiography, as well as Coomassie blue staining.
# [9] = system: p53; test: p53 DNA binding activity assay; type: cell-based; settings: MM.1S and H929 cells, 48 h
# Description: E2F1 DNA binding activity was assessed by electrophoretic mobility shift assay (EMSA) using “EMSA Gel Shift Kit®” from Affimetrix (Santa Clara, Calif.), and p53 DNA binding activity was performed using “p53 Transcription Factor Assay Kit®” from Cayman Chemical (Ann Arbor, Mich.). Experiments were carried out according to manufacturer's protocols.
# [10] = system: Chk1, ATM, ATR, Chk2; test: Immunoblotting of DNA damage kinase phosphorylation; type: cell-based; settings: MM.1S cells, 48 h
# Description: as §1
# [11] = system: TP53RK, CRBN; test: TP53RK and CRBN expression in MM cells (immunoblotting, qPCR); type: cell-based; settings: for TP53RK level: MM.1S cells, 48 h
# Description: as §1, §2
# pLKO.1-based shRNA vectors were obtained from the RNAi Consortium (Broad Institute). […] After 24 h of infection, cells expressing shRNA were selected with puromycin dihydrochloride (Sigma-Aldrich) at 1-2 μg/ml for 48 h, and then examined for proliferation and/or subjected to immunoblotting analysis. For siRNA transfection, scrambled, TP53RK, CRBN, p53, c-Myc and RRM1 siRNAs were purchased from Thermo Scientific (Lafayette, Colo.). siRNA transfection was carried out by Amaxa electroporation system using “Cell Line Nucleofector® Kit V or C” solution (Lonza, Koln, Germany).
# [12] = system: E2F1; test: E2F1 DNA binding activity (EMSA), protein and mRNA; type: cell-based; settings: MM cells
# Description: as §3, §4
# [13] = system: proteasome; test: Proteasome pathway (GSEA, qPCR) and chymotrypsin-like proteasome activity assay; type: cell-based; settings: H929 cells
# Description: as §2
# Expression data for plasma cells from healthy donors, monoclonal gammopathy of undetermined significance (MGUS), and smoldering myeloma (SMM) were derived from GSE5900 dataset, while expression data from normal plasma cells and 65 MM patients were obtained from GSE4452 dataset, using expression profiling on Affymetrix GeneChip (t test, unpaired, equal variance). […] Data were then normalized and analyzed using D-chip software, seeking statistically significant differences among groups or in p53-target gene expression. Statistical significance was determined by Student t test. The minimal level of significance was P<0.05. […] Gene set enrichment analysis (GSEA) was performed as previously described (2) (GSEA v2.0 at http://www.broad.mit.edu/gsea) using gene set as permutation type, as well as 1,000 permutations and signal to noise as metrics for ranking genes.
# Proteasome activity was measured by using Proteasome-Glo™ chymotrypsin-like cell-based assay (Promega, Madison, Wis.) according to manufacturer's protocol.
# [14] = system: hTERT; test: hTERT expression and telomerase activity (TeloTAGGG Telomerase PCR ELISA); type: cell-based; settings: MM.1S cells and H929 cells
# Description: as §1
# Telomerase activity in MM.1S and H929 cells was assessed by “TeloTAGGG Telomerase PCR ELISA®” from Roche Applied Science (Mannheim, Germany).
# [15] = MM.1S cells, Nutlin-3a 0.5 μM, 48 h
molecule,measurement,setting,value
CC1(N2C(=O)c3cccc(N)c3C2=O)CCC(=O)NC1=O (centres unmarked) [3′-methyl derivative],activity in co-stimulation of IL-2 production relative to pomalidomide,[1],similar
same,activity in B cell growth inhibition relative to pomalidomide,[2],similar
CCOc1ccc(C(Nc2ccccn2)c2ccc3ccc(C)nc3c2O)cc1C (centres unmarked) [HLM006474],IMiDs-induced Bim upregulation,[3]; dose-dependent,blocked
"COc1ccc(C2=N[C@@H](c3ccc(Cl)cc3)[C@@H](c3ccc(Cl)cc3)N2C(=O)N2CCNC(=O)C2)c(OC(C)C)c1 [Nut3, Nutlin-3a]",p-p53 and p53 levels,[4]; [15],upregulated
same,IMiD-triggered PARP cleavage in presence of Nut3,[3]; MM.1S cells,enhanced
same,MDM2 and XIAP expression,[3]; MM.1S cells,upregulated
same,"LC3-II upregulation triggered by Len and Pom, in presence of Nut3",[3]; [15],markedly downregulated
"Nc1cccc2c1C(=O)N(C1CCC(=O)NC1=O)C2=O (centres unmarked) [Pom, pomalidomide]",RRM1 expression,[5],downregulate
same,p18CDKN2C expression,[5],upregulate
same,"potency of p-p53/p53 downregulation, Pom versus Len",[4]; MM.1S cells,more potently
same,p53 phosphorylation at Ser20 and Ser37,"[4]; MM.1S cells, 2.5 μM, 48 h",no change
same,phosphorylated (p-Ser15)-p53 and p53 levels,"[4]; MM.1S cells, 2.5 μM, 48 h",downregulated
same,downstream p-p53 level,"[4]; MM.1S cells, 48 h",markedly reduced
same,Nut3-induced upregulation of p-p53 and p53,"[4]; MM.1S cells, Len or Pom 2.5 μM with Nutlin-3a 0.5 μM, 48 h",inhibited
same,p-p53/p53 downregulation,"[4]; nuclear extracts from MM.1S and H929 cell lines, patient MM cells",further confirmed
same,drug-triggered growth inhibition in kinase-dead D163A TP53RK transfectants,"[6]; H929 cells, 48 h",abrogated
same,Pom-induced MM cell growth inhibition after TP53RK knockdown,"[6]; H929 cells, TP53RK siRNA then Pom 48 h, p<0.02",enhanced
same,sensitivity of MM cell lines to drug,[6]; MM.1S and H929 cells with wt-p53 versus cell lines with mutant p53,more sensitive
same,drug-triggered cell death after CRBN knock-down,[6]; OPM2 cells (mutant p53) and H929 cells (wt-p53),only partially abrogates
same,anti-MM activity,"[6]; among the IMiDs Thal, Len, Pom",most potent anti-MM activity
same,LC3-II level,"[3]; MM.1S cells, 2.5 μM, 48 h",upregulation
same,c-Myc transcription (real-time qPCR),[7]; MM.1S cells,decreased transcription
same,in vitro auto-phosphorylation of TP53RK,[8],markedly downregulated
same,p53 activity (p53 DNA binding),[9],block
same,"phosphorylation of ATM, ATR or Chk2",[10],not
same,phosphorylation of Chk1,[10],inhibited
same,TP53RK level,[11],induced downregulation
same,E2F1,[12],increases
same,chymotrypsin-like proteasome activity,[13],downregulation
same,proteasome pathway (GSEA),[13],downregulation
same,hTERT expression,[14],significantly inhibited
same,telomerase (hTERT) activity,[14],significantly inhibited
CCc1cc(C(N)=O)ccc1-n1nc(C(C)C)c2c(-n3cnc(-c4cnn(C)c4)c3)ccnc21 [TAS-116],p-p53 modulation on Akt inhibition,[4]; MM.1S cells,in neither case was p-p53 modulation observed
"O=C1CCC(N2C(=O)c3ccccc3C2=O)C(=O)N1 (centres unmarked) [Thal, Thalidomide]",downstream p-p53 level,"[4]; MM.1S cells, 48 h",not
same,TP53RK level,[11],not
CC(C)C[C@H](NC(=O)[C@H](Cc1ccccc1)NC(=O)c1cnccn1)B(O)O [bortezomib],cytotoxicity induced by bortezomib after TP53RK knockdown,"[6]; H929 cells, TP53RK siRNA then BTZ 3 nM 24 h, MTT",further enhanced
"TP53RK siRNA: SMARTpool of J-003108-09, -10, -11, -12 siRNAs against TP53RK (Table 4) (nucleic acid, SMARTpool mixture, further chemistry not given here) guide 1: GGUAGAAGAAUGUGUAUGA guide 2: GCUUCCAACUGCUUAUAUA guide 3: GCUGAACAUUGUGCUCAUA guide 4: GUACCCAUCCCAACACUGA",RRM1 expression,[5],downregulation
same,p18CDKN2C expression,[5],upregulation
same,"MM cell growth, viable cells by Trypan-blue","[6]; H929 cells, siRNA knockdown",triggered MM cell growth inhibition
same,cell growth after knock-down,[6]; MM.1S and H929 cells,growth inhibition
same,IKZF1/3 expression after TP53RK knockdown,[7]; MM.1S cells and H929 cells,markedly downregulated
same,CRBN expression after TP53RK knock-down,[11]; H929 cells (also MM.1S),did not modulate; also recorded: not altered
same,TP53RK mRNA levels,[11]; MM.1S and H929 cells,markedly decreased
same,PSMB5 PSMB7 and PSMA3 mRNA,[13],downregulation
same,chymotrypsin-like proteasome activity,[13],significantly inhibited
same,poly-ubiquitinated proteins,[13],accumulation
same,proteasome pathway (GSEA),[13],downregulated
same,hTERT expression,[14],downregulated
"CRBN siRNA: SMARTpool of J-021086-9 to -12 siRNAs against CRBN (nucleic acid, SMARTpool mixture, further chemistry not given here, SMARTpool of J-021086-9 to -12 siRNAs against CRBN) guide 1: CAAUUAGAAUCCCUCAAUA guide 2: GUAUAAGGCUUGCAACUUG guide 3: GACAUUACCUCUUCAGCUU guide 4: CGACUUCGCUGUGAAUUAG",TP53RK expression after CRBN knockdown,[11]; H929 cells,did not change
same,chymotrypsin-like proteasome activity,[13],not
